Measured values as given in US20020103228A1, “Composition and method for use of pyridinium derivatives in cosmetic and therapeutic applications” (TORRENT PHARMACEUTICALS LTD., priority 1999, published 2002).
Read-outs that look alike come from different tables or passages of the source.

What was measured:
[1] = system: arterial stiffness; details: diabetes induced (Wolffenbutel 1998); cited from earlier work
[2] = system: diabetic rats; details: cited from earlier work
[3] = system: old rats; details: Li et al (1996); cited from earlier work
[4] = system: rat model of diabetic retinopathy; details: cited from earlier work
[5] = system: diabetic rats; details: cited from earlier work; remark: listed apart in the source
[6] = molecular target: T1, AGE-BSA (Bos taurus, UniProt P02769); assay: In-vitro AGE breaking activity by ELISA; type: biochemical, Bovine; details: 37° C., 24 hours
T1 construct: Bovine serum albumin (fraction V) (BSA); from tissue; host or cells: bovine serum (fraction V); glycated in house with 1.6 M glucose at 37 °C for 16 weeks
Procedure, shortened: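 BSA glycated with 1.6 M glucose in PBS at 37° C for 16 weeks, then dialyzed; 10 μg/ml AGE-BSA incubated with test compounds 24 h at 37° C. Remaining AGE-BSA coated at 5–20 ng/well and quantified by ELISA (anti-AGE-BSA primary, HRP anti-rabbit, OPD, OD 450–620 nm); % breaking calculated versus untreated 20 ng AGE-BSA.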

[7] = system: Rat-Tail Tendon collagen of diabetic male wister rats; details: 8 weeks of treatment
Method: To evaluate AGE breaker efficacy of compounds of formula (I) the process of aging was mimicked by induction of diabetes in male wister rats. Diabetes was induced in male wister rats (by repeated STZ injections) to mimic the process of aging and formation of AGE. Diabetic male wister rats were treated with compounds of formula (I) for a period of 8 weeks after induction of diabetes and collagen solubility was measured in Rat-Tail Tendon. Rat Tail Tendon were selected because of their similarity with skin collagen (i.e. Type I collagen). After 8 weeks of treatment the “control” and “treated” groups of animals were sacrificed and tail tendons were homogenized, digested with hydrochloric acid and the supernatant of both the groups of animals was assayed for hydroxyprolin for acid soluble collagen contents as per method of Stegemann and Stalder (clinica Chimica Acta, 18 (1967) 267-273).
Diabetes and aging are degenerative process where normal proteins like collagen become cross-linked. The cross linking of skin collagen can lead to complications like Aging. To test the ability of compounds of invention to break pre-formed AGE, diabetic animals were treated for 8 weeks with the compounds. After the treatment the collagen solubility was estimated to determine their AGE breaking activity.

[8] = Free radical scavenging activity on ABTS radical cation; type: biochemical
Procedure, shortened: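 ABTS radical cation generated with horseradish peroxidase and 1.08 mM H2O2 stock in PBS, preincubated 30 min at 30 °C. Serial dilutions were added, and absorbance at 730 nm was read immediately against PBS blank. % activity = (OD test/OD control ×100) − 100.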

T1 sequence (P02769 25-607): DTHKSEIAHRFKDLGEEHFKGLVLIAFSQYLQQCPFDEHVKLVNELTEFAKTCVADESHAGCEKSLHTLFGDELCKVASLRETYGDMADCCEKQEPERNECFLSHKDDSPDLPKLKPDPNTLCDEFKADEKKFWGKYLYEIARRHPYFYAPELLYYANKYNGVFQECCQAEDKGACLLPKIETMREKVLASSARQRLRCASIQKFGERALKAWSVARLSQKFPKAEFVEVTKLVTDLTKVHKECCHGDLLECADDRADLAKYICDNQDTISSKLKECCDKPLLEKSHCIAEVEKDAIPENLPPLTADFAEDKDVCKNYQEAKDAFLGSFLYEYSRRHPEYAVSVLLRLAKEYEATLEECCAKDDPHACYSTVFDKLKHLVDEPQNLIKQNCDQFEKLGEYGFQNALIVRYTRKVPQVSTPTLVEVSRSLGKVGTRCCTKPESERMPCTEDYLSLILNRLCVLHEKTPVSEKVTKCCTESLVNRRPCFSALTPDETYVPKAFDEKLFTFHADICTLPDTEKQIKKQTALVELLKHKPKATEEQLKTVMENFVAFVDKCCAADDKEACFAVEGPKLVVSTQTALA

In the case of `Cc1sc[n+](CC(=O)c2ccccc2)c1C.[Cl-]` [ALT-711], the “arterial stiffness and arterial compliance” value [1] is listed as “reverse diabetes induced increase of arterial stiffness and improve arterial compliance”.

For `N=C(N)NN` [Aminoguanidine], the “development of diabetic nephropathy” value ([2]; Yamauchi (1997)) is given as “inhibits development of diabetic nephropathy”, the “thickening of glomerular basement membrane” value ([2]; diabetic rats (Ellis 1991)) is given as “ameliorate thickening of glomerular basement membrane” and the rise in albuminuria ([2]; experimental diabetic rats (Soulis-Liparota, 1991)) is given as “attenuate the rise in albuminuria”. For the same compound, the “tissue damage in aging” value [3] was “significantly prevent tissue damage”, the “progression of diabetic retinopathy” value [4] was “retard progression of diabetic retinopathy” and the nerve conduction velocity [5] was “improve nerve conduction velocity”.

With `CS(=O)(=O)NNC(=O)c1ccc[n+](CC(=O)c2cccs2)c1.[Br-]` [Compound 5, 1-(2-thien-2′-yl-2-oxoethyl)-3-(methanesulfonylhydrazinocarbonyl)pyridinium bromide] the “% Breakage” value ([6]; 10 mM test compound) was 16%, the “% Breakage” value ([6]; 50 mM test compound) was 68% and the “% Improvement in collagen solubility with respect to untreated control subject.” value (from here on “% Improvement in collagen solubility”) ([7]; 10.0 mg/kg) was 88.80%. The “Relative Free Radical Scavenging Activity (%) on ABTS” value ([8]; 11.5 μM) was 47.2%, the “Relative Free Radical Scavenging Activity (%) on ABTS” value ([8]; 23.0 μM) was 65.6% and the “Relative Free Radical Scavenging Activity (%) on ABTS” value ([8]; 46.0 μM) was 83.7%. The “Relative Free Radical Scavenging Activity (%) on ABTS” value ([8]; 92.5 μM) was 100%.

For `O=C(NNC(=O)c1ccc[n+](CC(=O)c2cccs2)c1)c1ccc[n+](CC(=O)c2cccs2)c1.[Br-].[Br-]` [Compound 6, N,N′-bis[3-carbonyl-1-(2-thien-2′-yl-2-oxoethyl)pyridinium]hydrazine dibromide], the “% Breakage” value ([6]; 5 mM test compound) was 53% and the “% Improvement in collagen solubility” value ([7]; 7.5 mg/kg) was 56.70%.

With `O=C(NNC(=O)c1ccc[n+](CC(=O)c2cccs2)c1)c1ccc[n+](CC(=O)c2cccs2)c1.[Cl-].[Cl-]` [Compound 33, N,N′-bis[3-carbonyl-1-(2-thien-2′-yl-2-oxoethyl)pyridinium]hydrazine dichloride] the “% Breakage” value ([6]; 5 mM test compound) was 20%, the “% Improvement in collagen solubility” value ([7]; 15.0 mg/kg) was 80.45% and the “Relative Free Radical Scavenging Activity (%) on ABTS” value ([8]; 11.5 μM) was 58.4%. For the same compound, the “Relative Free Radical Scavenging Activity (%) on ABTS” value ([8]; 23.0 μM) was 72.8%, the “Relative Free Radical Scavenging Activity (%) on ABTS” value ([8]; 46.0 μM) was 98.5% and the “Relative Free Radical Scavenging Activity (%) on ABTS” value ([8]; 92.5 μM) was 100%.

For `O=C(C[n+]1cccc(C(=O)NNC(=O)c2ccc[n+](CC(=O)NC3CC3)c2)c1)NC1CC1.[Cl-].[Cl-]` [Compound 39, N,N′-bis-[3-carbonyl-1-(2-cyclopropylamino-2-oxoethyl)pyridinium]hydrazine dichloride], the “% Breakage” value ([6]; 5 mM test compound) was 22.8%, the “% Improvement in collagen solubility” value ([7]; 6.0 mg/kg) was 28.00% and the “Relative Free Radical Scavenging Activity (%) on ABTS” value ([8]; 11.5 μM) was 43.0%. The “Relative Free Radical Scavenging Activity (%) on ABTS” value ([8]; 23.0 μM) was 62.8%, the “Relative Free Radical Scavenging Activity (%) on ABTS” value ([8]; 46.0 μM) was 95.6% and the “Relative Free Radical Scavenging Activity (%) on ABTS” value ([8]; 92.5 μM) was 98%.

In the case of `O=C(NCCO)c1ccc[n+](CC(=O)c2cccs2)c1.[Br-]` [Compound 90, 1-(2-Thien-2′-yl-2-oxoethyl)-3-((2-hydroxyethyl)aminocarbonyl)pyridinium bromide], the “% Breakage” value ([6]; 10 mM test compound) is reported as 50%, the “Relative Free Radical Scavenging Activity (%) on ABTS” value ([8]; 11.5 μM) is reported as 47.8% and the “Relative Free Radical Scavenging Activity (%) on ABTS” value ([8]; 23.0 μM) is reported as 58.8%. The “Relative Free Radical Scavenging Activity (%) on ABTS” value ([8]; 46.0 μM) was 78.2%, the “Relative Free Radical Scavenging Activity (%) on ABTS” value ([8]; 92.5 μM) was 99.5% and the “Relative Free Radical Scavenging Activity (%) on ABTS” value ([8]; 925 μM) was 100%.

With `CCCCOC(=O)c1ccc[n+](CC(=O)Nc2ccccc2)c1.[Cl-]` [Compound 93, 1-(2-Phenylamino-2-oxoethyl)-3-(n-butyloxycarbonyl)pyridinium chloride] the “% Breakage” value ([6]; 10 mM test compound) was 57%, the “Relative Free Radical Scavenging Activity (%) on ABTS” value ([8]; 11.5 μM) was 8.5% and the “Relative Free Radical Scavenging Activity (%) on ABTS” value ([8]; 23.0 μM) was 8.6%. For the same compound, the “Relative Free Radical Scavenging Activity (%) on ABTS” value ([8]; 46.0 μM) was 9.6%, the “Relative Free Radical Scavenging Activity (%) on ABTS” value ([8]; 92.5 μM) was 11.4% and the “Relative Free Radical Scavenging Activity (%) on ABTS” value ([8]; 925 μM) was 25.0%.
